Positions count from the first letter of the chain named.
Columns and labels:
isoMnSOD [1] = molecular target: T1, isoMnSOD (Mus musculus, UniProt P09671, DEL77-115); assay: isoMnSOD peroxidative activity, cerebellum mitochondrial extracts on nitrocellulose strips (Example 20); type: biochemical; conditions: 1 μM of compound, 30 min at room temperature; cerebellum of 4 week mice; 1 mM hydrogen peroxide, luminol; FIG. 7
T1 construct: Mitochondrial pellets were lysed in 1% CHAPS detergent; from tissue; host or cells: mouse cerebellum mitochondria
T1 sequence (P09671 with tags, fused parts or gaps DEL77-115): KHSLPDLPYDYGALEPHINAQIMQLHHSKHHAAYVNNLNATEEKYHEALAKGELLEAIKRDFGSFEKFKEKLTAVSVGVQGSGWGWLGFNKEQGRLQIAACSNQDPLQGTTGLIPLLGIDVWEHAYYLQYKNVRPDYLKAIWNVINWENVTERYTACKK
Experimental: Protein extracts containing isoMnSOD were prepared from cerebellum from 4 week mice by first forming a liquid nitrogen powder, resuspended with five volumes of ice-cold lysis buffer (in mM: 20 HEPES-KOH, pH 7.5, 10 KCl, 1.5 MgCl2, 1 DTT, 1 EDTA, 1 EGTA, and 0.1 PMSF) containing 70 mM mannitol and 250 mM sucrose and homogenizing with a Dounce homogenizer. Extract was centrifuged at 750 g for 10 min at 4° C. and the supernatant was then centrifuged at 10,000 g for 15 min at 4° C. to pellet the mitochondrial pellet, which was then stored frozen. Mitochondrial pellets were lysed in 1% CHAPS detergent containing 50 mM Tris-Cl, pH 8.0, 500 mM NaCl and then loaded onto a native 5% polyacrylamide gel. Protein concentration was measured by using the Bradford protein assay kit. After transfer to nitrocellulose, nitrocellulose strips were incubated with 1 μM of compound in 50 mM Tris-HCl, 50 mM NaCl, 5 mM EDTA, pH 8.0 for 30 min at room temperature, then washed extensively with incubation buffer alone. The peroxidative activity of isoMnSOD was measured using 100 of Femtomole luminol (Pierce) containing 1 mM hydrogen peroxide per nitrocellulose strip and exposed to x-ray film.

isoMnSOD expression = assay: Doxorubicin induction of isoMnSOD expression in adult heart explants, Western Blot (Example 9); type: cell-based, rat; conditions: 3 days, 0.1 nM to 1.0 μM Doxorubicin in AdvDMEM 2% FBS, FIG. 3
Experimental: Briefly, after rats (5 weeks old) were killed by decapitation, the hearts were aseptically excised and residual blood was removed. The heart was perfused in Joklik's medium (containing Joklik's minimal essential medium, 25 mmol/L glutamic acid, 30 mmol/L taurine, and 1 mmol/L adenosine) without recirculation on a modified Langendorff apparatus for approximately 10 minutes at 37° C. The perfusion was then continued for 30 minutes at the same temperature, with recirculation in Joklik's medium containing collagenase type II (100 U/mL). After perfusion, the ventricles were cut into small pieces and tritulated in 0.05% Trypsin/EDTA for 10 min. Cardiac explants were cultured overnight on laminin-coated (20 μg per well) 35-mm six-well plates in medium 199 containing 5% FBS, 5 mM creatine, 2 mM L-carnitine, and 5 mM taurine. Explants were treated with doxorubicin (Sigma) shortly after plating for 24 hrs at 1 mM.

[2] = test system: AMP kinase phosphorylation at Thr172; assay: Doxorubicin-induced activation of AMP kinase in heart explants, western immunoblot (Example 22); type: cell-based; conditions: rat heart explants, 1 mM doxorubicin overnight; FIG. 9 Lane 2
Experimental: Hearts from 4 week rats were excised and minced without trypsin in 50:50 medium M199:MCDB 10% FBA containing 5 mM Creatine, 2 mM L-carnitine and 5 mM taurine. Explants were incubated overnight at 37° C. in a 5% CO2 incubator untreated (Lane 1), with 1 mM doxorubicin (Lane 2), and with 1 mM doxorubicin and 4 μM 2-(3,4-dihydroxy-phenyl)-N-heptadec-8-enyl-acetamide (IV) (Lane 3). Explants were frozen at −70° C., liquid nitrogen powders were prepared and lysed and denatured in 2% SDS with 5% BME with boiling for 5 min. Protein extracts were examined by western immunoblotting using a rabbit monoclonal recognizing Phospho-AMP Kinase-α (Thr172) (CellSignal).
The AMP kinase was activated by an elevated AMP(high)/ATP(low) ratio due to cellular and environmental stress, such as heat shock, hypoxia and ischemia. Elevated AMP/ATP ratio and activation of AMPK by phosphorylation at Thr172 can also occur by uncoupling mitochondrial oxidative phosphorylation from respiration with oligomycin and thereby loss of mitochondrial ATP synthesis.

[3] = test system: altMnSODreport reporter expression; assay: Reporter gene system (altMnSODreport) to analyze compounds for toxicity (Example 17); type: cell-based; conditions: cells comprising the reporter gene system; written in present tense
From the text: The test reporter system utilizes a recombinant DNA construct that contains an in frame fusion of a genomic fragment spanning MnSOD Exon 2 to Exon 4, but which also harbors a mutant MnSOD Exon 3, (i.e. frameshift mutation), to a B-galactosidase gene, or Green Fluorescence Protein (“altMnSODreport”). Alternative splicing and skipping of MnSOD (coding) Exon 3 will result in a fusion protein comprising a short stretch of MnSOD E2 and E4 coding sequences N-terminal to a reporter protein; the MnSODE2E4 amino acid sequence is 20 amino acids and should not interfere with the expression of the reporter. […]
Breast cancer cell line, MDA-MB-435, Her-2/neu over-expressing (ATCC), fibroblast cells lines NIH3T3 and B104, which are NIH3T3 cells transfected with the rat ErbB2/Her2 oncogene, and normal primary cells (Clonetics; rat cardiomyocytes, donated by Kathryn Maschhoff, MD PhD, Neonatology, University of Pennsylvania) are treated with doxorubicin alone and in combination with the rat ErbB2/Her2 17.6.4 monoclonal antibody, which downregulates the human and rat Her2 receptor (Zhang et al., 1999) (Oncogene), and Herceptin™ (Genentech). It is also determined if the Her2 mAbs induces isoMnSOD expression in untransfected cells and cells transfected with altMnSODreport. […]

isoMnSOD [4] = assay: Inhibition of pro-oxidant activity of isoMnSOD, at least one of the assays of the Examples; conditions: according to at least one of the assays provided in the Examples
[5] = test system: mitochondrial peroxidase activity (isoMnSOD); assay: Peroxidative assay (ROS-activity blot) of mitochondrial extracts from treated pancreatic explants (Example 12); type: cell-based, pig; conditions: pancreatic explant cultured 1 hr at 37° C. with equal volume of 2 μM compound, FIG. 1
Experimental: F10 medium was used throughout the procedure. Pancreas (8 grams) from a 3 kilo pig was minced, washed twice, and 1 g of tissue was resuspended in 5 ml of F10 medium. […] Explants were stored frozen at −70° C. Tissue was homogenized in Buffer A at 4° C. and mitochondria was isolated by differential centrifugation and stored frozen at −70° C. Peroxidative assay of native mitochondrial extracts analyzed by the ROS-activity blot.

[6] = molecular target: T2, MnSOD-Exon3-deleted isoform (isoMnSOD) (Homo sapiens, UniProt P04179); assay: Detection of inhibitors bound to isoMnSOD by combined immunoprecipitation/western blot (Example 13); type: binding; conditions: immunoprecipitation with anti-dopamine or anti-serotonin antibody, isoMnSOD detected; FIG. 2A, 2B
T2 sequence (P04179 25-183 isoform P04179-2 limits assumed): T1 sequence (P09671 with tags, fused parts or gaps DEL77-115) with A40V, H46Q, E66D, V75A, Q93R, R95H, S102P, T155M
Experimental: Covalent modification of the MnSOD-Exon3-deleted isoform was measured by a combined immunoprecipitation/western blot analysis. Immunoblots for detecting AA-DA, EPA-DA, DHA-DA, C18:4(ω-3)-DA adducts were performed using anti-dopamine rabbit polyclonal (Chemicon) and anti-serotonin goat polyclonal antibodies (ImmunoStar), respectively. After immunoprecipitating using an antibody against the inhibitor, isoMnSOD was detected as described above.

isoMnSOD [7] = assay: Drug inhibition method: peroxidative activity of isoMnSOD on PVDF strips (Example 4); conditions: 1 μM test compound in TBS, 30 minutes; pancreatic mitochondria native extracts on PVDF; 1 mM H2O2, luminol; FIG. 4
Experimental: Each test compound was prepared by mixing 5 μL of a 1 mM test compound stock solution in ethanol with 5 μL of 0.1 M KOH, followed by the addition of 5 ml of TBS for a final concentration of 1 μM test compound. Equal amounts of native protein extracts from pancreatic mitochondria (obtained according to the protocol of Example 5) were loaded in separate wells and resolved in a 7% PAGE gel without SDS, electrotransferred to PVDF and divided into strips. Each PVDF strip was incubated with 1 μM of test compound in TBS for 30 minutes, washed twice in TBS for 20 minutes, and the peroxidative activity of isoMnSOD was measured by incubation of each strip with 1 mM H2O2 in 0.4 ml of the luminol solution contained within the Femtomole chemiluminescence assay kit (Pierce) and exposed to x-ray film (FIG. 4).
All procedures were carried out at 4° C. Mitochondria were obtained from a liquid nitrogen powder of one pig pancreas (˜8 g), which was resuspended in 15 ml of buffer A containing following protease inhibitors: 1 μg/ml aprotinin, 1 μg/ml pepstatin A, 1 μg/ml chymostatin A, 2 μg/ml leupeptin, 2 μM benzamide hydrochloride, and 1 μM phenylmethylsulfonyl fluoride. Tissue was broken with a Potter homogenizer and the homogenate was centrifuged for 10 min at 800 g to remove cell debris. The supernatant was centrifuged at 10,000 g from 15 min to recover mitochondria. The mitochondrial pellet was washed twice with a hand held Dounce homogenizer and mitochondria were stored frozen. Mitochondria were lysed by slowly adding 1 ml of M-Per (Pierce) containing 1/10 vol 5M NaCl and 1/10 vol Buffer A. The mitochondrial lysate was subsequently clarified by centrifugation for 10 min at 2000 g.

Question: For `CCCCCCCC/C=C\CCCCCCCNC(=O)Cc1cc(O)ccc1O` [2-(2,5-dihydroxy-phenyl)-N-heptadec-8-enyl-acetamide], which Inhibition (isoMnSOD [1]) is on record?
Answer: yes

Question: Which isoMnSOD expression (isoMnSOD expression) does the source give for `COc1cccc2c1C(=O)c1c(O)c3c(c(O)c1C2=O)C[C@@](O)(C(=O)CO)C[C@@H]3O[C@H]1C[C@H](N)[C@H](O)[C@H](C)O1` [Doxorubicin] here?
Answer: induced isoMnSOD expression

Question: What about the “Activation of AMP kinase by phosphorylation at Thr172” value [2] of the same compound?
Answer: Activation

Question: What about the “expression of altMnSOD report” value [3] of the same compound?
Answer: causes an increase

Question: With `COC1=C(OC)C(=O)C(CCCCCCCCCCO)=C(C)C1=O` [Idebenone] as the compound, how does the Inhibition (isoMnSOD [1]) read?
Answer: no

Question: For `CCCCC/C=C\C/C=C\C/C=C\C/C=C\CCCC(=O)NCCc1c[nH]c2ccc(O)cc12` [arachidonoyl-serotonin, arachidonoyl serotonin], which “inhibition of pro-oxidant activity of isoMnSOD” value (isoMnSOD [4]) is on record?
Answer: inhibit pro-oxidant activity of isoMnSOD

Question: And the “inhibition of mitochondrial peroxidase activity” value [5]?
Answer: inhibited the mitochondrial peroxidase activity

Question: And the “binding to isoMnSOD (covalent modification)” value (“binding to isoMnSOD” below) [6]?
Answer: able to bind to isoMnSOD

Question: With `CC/C=C\C/C=C\C/C=C\C/C=C\C/C=C\C/C=C\CCC(=O)NCCc1ccc(O)c(O)c1` [docosahexaenoyl (DHA)-dopamine, docosahexaenoyl dopamine] as the compound, how does the “inhibition of pro-oxidant activity of isoMnSOD” value (isoMnSOD [4]) read?
Answer: inhibit pro-oxidant activity of isoMnSOD

Question: And the “inhibition of peroxidative activity of isoMnSOD” value (isoMnSOD [7])?
Answer: inhibit peroxidative activity more significantly than the other compounds

Question: And the “inhibition of mitochondrial peroxidase activity” value [5]?
Answer: inhibited the mitochondrial peroxidase activity

Question: And the “binding to isoMnSOD” value [6]?
Answer: able to bind to isoMnSOD

Question: Which results are given for `CC/C=C\C/C=C\C/C=C\C/C=C\C/C=C\CCCC(=O)NCCc1ccc(O)c(O)c1` [eicosapentaenoyl (EPA)-dopamine, eicosapentaenoyl dopamine]?
Answer: inhibition of pro-oxidant activity of isoMnSOD (isoMnSOD [4]): inhibit pro-oxidant activity of isoMnSOD; inhibition of peroxidative activity of isoMnSOD (isoMnSOD [7]): inhibit peroxidative activity more significantly than the other compounds; inhibition of mitochondrial peroxidase activity [5]: did not inhibit peroxidase activity to the same effect

Question: With Arachidonic acid-biotinimide as the compound, how does the Inhibition (isoMnSOD [1]) read?
Answer: yes

Question: Which “inhibition of pro-oxidant activity of isoMnSOD” value (isoMnSOD [4]) does the source give for C18:4(ω-3)-dopamine here?
Answer: inhibit pro-oxidant activity of isoMnSOD

Question: What about the “inhibition of peroxidative activity of isoMnSOD” value (isoMnSOD [7]) of the same compound?
Answer: inhibit peroxidative activity more significantly than the other compounds

Question: What about the “inhibition of mitochondrial peroxidase activity” value [5] of the same compound?
Answer: inhibited the mitochondrial peroxidase activity

Question: And the “binding to isoMnSOD” value [6]?
Answer: able to bind to isoMnSOD

Question: For Prostaglandin A1-biotinimide, which Inhibition (isoMnSOD [1]) is on record?
Answer: yes

Source: patent US8426644B2, “Compositions and methods for inhibiting an isoform of human manganese superoxide dismutase” (MitoTek, LLC, priority 2005, dated 2013)
